From US20030229053A1, “Compounds and methods for the treatment or prevention of flavivirus infections” (Shire BioChem Inc., priority 2001, published 2003)

Biological target: HCV NS5B RNA-dependent RNA polymerase (Hepatitis C virus genotype 1b, UniProt P26663)
Test: In vitro RNA-dependent RNA polymerase assay (Assay 1), polyA/oligo dT, TCA precipitation
Format: biochemical
Details: polyA/oligo dT template/primer, 200 ng NS5B, 2 h at 22° C.; read-out: RNA pol Assay 1 IC50 (μm)
Method in brief: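 Purified NS5B (200 ng) on annealed polyA/oligo dT15 in 20 mM Tris-HCl pH 7.5, 50 mM NaCl, 5 mM MgCl2, 1 mM DTT, 15 µM cold UTP plus [32P]-UTP, 2 h at 22°C. Product TCA-precipitated, filtered onto glass-fibre and counted by liquid scintillation.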

HCV NS5B RNA-dependent RNA polymerase, sequence (P26663 2420-3010 limits assumed): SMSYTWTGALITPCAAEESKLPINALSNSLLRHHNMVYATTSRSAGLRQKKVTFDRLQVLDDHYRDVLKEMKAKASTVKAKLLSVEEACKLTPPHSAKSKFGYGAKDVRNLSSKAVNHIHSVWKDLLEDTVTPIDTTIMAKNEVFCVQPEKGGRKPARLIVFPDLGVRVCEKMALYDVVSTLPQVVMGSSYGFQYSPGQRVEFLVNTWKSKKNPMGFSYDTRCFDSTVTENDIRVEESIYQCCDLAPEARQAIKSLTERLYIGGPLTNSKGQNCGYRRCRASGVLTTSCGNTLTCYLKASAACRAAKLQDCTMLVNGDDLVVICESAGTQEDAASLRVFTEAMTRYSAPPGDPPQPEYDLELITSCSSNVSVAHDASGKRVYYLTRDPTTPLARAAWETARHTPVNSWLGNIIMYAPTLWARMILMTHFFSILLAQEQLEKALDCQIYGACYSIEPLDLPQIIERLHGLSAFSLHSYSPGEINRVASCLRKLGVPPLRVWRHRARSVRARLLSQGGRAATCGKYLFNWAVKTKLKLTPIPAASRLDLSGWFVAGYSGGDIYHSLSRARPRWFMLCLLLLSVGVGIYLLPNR

IC50 [µM]	SMILES
< 5	O=C(O)[C@H](Cc1ccccc1)N(Cc1cc(-c2ccc(Cl)c(F)c2)cs1)C(=O)c1ccc(Cl)cc1Cl [compound #88, (2s)-2-[[4-(4-Chloro-3-fluoro-phenyl)-thiophen-2-ylmethyl]-(2,4-dichloro-benzoyl)-amino]-3-phenyl-propionic acid]
< 5	O=C(O)[C@H](Cc1ccccc1)N(Cc1cc(-c2ccc(F)c(Cl)c2)cs1)C(=O)c1ccc(Cl)cc1Cl [compound #89, (2s)-2-[[4-(3-Chloro-4-fluoro-phenyl)-thiophen-2-ylmethyl]-(2,4-dichloro-benzoyl)-amino]-3-phenyl-propionic acid]
< 5	O=C(O)[C@H](Cc1ccccc1)N(Cc1cc(-c2ccc(Cl)cc2Cl)cs1)C(=O)c1ccc(Cl)cc1Cl [compound #90, (2s) -2-{(2,4-Dichloro-benzoyl)-[4-(2,4-dichloro-phenyl)-thiophen-2-ylmethyl]-amino}-3-phenyl-propionic acid]
< 5	O=C(O)[C@H](Cc1ccccc1)N(Cc1ccc(-c2ccc(F)c(Cl)c2)s1)C(=O)c1ccc(Cl)cc1Cl [compound #91, (2s)-2-[[5-(3-Chloro-4-fluoro-phenyl)-thiophen-2-ylmethyl]-(2,4-dichloro-benzoyl)-amino]-3-phenyl-propionic acid]
< 5	O=C(O)[C@H](Cc1ccccc1)N(Cc1ccc(-c2ccc(Cl)c(F)c2)s1)C(=O)c1ccc(Cl)cc1Cl [compound #92, (2s)-2-[[5-(4-chloro-3-fluoro-phenyl)-thiophen-2-ylmethyl]-(2,4-dichloro-benzoyl)-amino]-3-phenyl-propionic acid]
< 5	O=C(O)[C@H](Cc1ccccc1)N(Cc1ccc(-c2ccc(Cl)cc2Cl)s1)C(=O)c1ccc(Cl)cc1Cl [compound #93, (2s)-2-{(2,4-Dichloro-benzoyl)-[5-(2,4-dichloro-phenyl)-thiophen-2-ylmethyl]-amino}-3-phenyl-propionic acid]
< 5	O=C(O)[C@H](Cc1ccccc1)N(Cc1ccc(-c2nccs2)s1)C(=O)c1ccc(Cl)cc1Cl [compound #94, (2s)-2-[(2,4-Dichloro-benzoyl)-(5-thiazol-2-yl-thiophen-2-ylmethyl)-amino]-3-phenyl-propionic acid]
< 5	O=C(O)[C@H](Cc1ccccc1)N(Cc1ccc(-c2cc(F)cc(F)c2)s1)C(=O)c1ccc(Cl)cc1Cl [compound #95, (2s)-2-{(2,4-Dichloro-benzoyl)-[5-(3,5-difluoro-phenyl)-thiophen-2-ylmethyl]-amino}-3-phenyl-propionic acid]
< 5	COc1cccc(-c2ccc(CN(C(=O)c3ccc(Cl)cc3Cl)[C@@H](Cc3ccccc3)C(=O)O)s2)c1 [compound #96, (2s)-2-{(2,4-Dichloro-benzoyl)-[5-(3-methoxy-phenyl)-thiophen-2-ylmethyl]-amino}-3-phenyl-propionic acid]
< 5	O=C(O)[C@H](Cc1ccccc1)N(Cc1ccc(-c2cccc(F)c2)s1)C(=O)c1ccc(Cl)cc1Cl [compound #97, (2s)-2-{(2,4-Dichloro-benzoyl)-[5-(3-fluoro-phenyl)-thiophen-2-ylmethyl]-amino}-3-phenyl-propionic acid]
< 5	O=C(O)[C@H](Cc1ccccc1)N(Cc1cccs1)C(=O)c1ccc(Cl)cc1Cl [compound #98, (2s)-2-[(2,4-Dichloro-benzoyl)-thiophen-2-ylmethyl-amino]-3-phenyl-propionic acid]
< 5	O=C(O)[C@H](Cc1ccccc1)N(Cc1cc(Br)cs1)C(=O)c1ccc(Cl)cc1Cl [compound #99, (2s)-2-[(4-Bromo-thiophen-2-ylmethyl)-(2,4-dichloro-benzoyl)-amino]-3-phenyl-propionic acid]
5 to 20	O=C(O)[C@H](Cc1ccccc1)N(Cc1cnc(N2CCN(c3ccccc3)CC2)s1)C(=O)c1ccc(Cl)cc1Cl [compound #100, (2s)-2-{(2,4-Dichloro-benzoyl)-[2-(4-phenyl-piperazin-1-yl)-thiazol-5-ylmethyl]-amino}-3-phenyl-propionic acid]
< 5	O=C(O)[C@H](Cc1ccccc1)N(Cc1cnc(N2CCN(Cc3ccccc3)CC2)s1)C(=O)c1ccc(Cl)cc1Cl [compound #102, (2s)-2-[[2-(4-Benzyl-piperazin-1-yl)-thiazol-5-ylmethyl]-(2,4-dichloro-benzoyl)-amino]-3-phenyl-propionic acid]
< 5	O=C(O)[C@H](Cc1ccccc1)N(Cc1cnc(N2CCCCC2)s1)C(=O)c1ccc(Cl)cc1Cl [compound #103, (2s)-2-[(2,4-Dichloro-benzoyl)-(2-piperidin-1-yl-thiazol-5-ylmethyl)-amino]-3-phenyl-propionic acid]
< 5	CCN(CC)c1ncc(CN(C(=O)c2ccc(Cl)cc2Cl)[C@@H](Cc2ccccc2)C(=O)O)s1 [compound #104, (2s)-2-[(2,4-Dichloro-benzoyl)-(2-diethylamino-thiazol-5-ylmethyl)-amino]-3-phenyl-propionic acid]
5 to 20	COc1cc(C)c(S(=O)(=O)N(Cc2c(C(=O)c3ccc(Cl)cc3)oc3ccccc23)[C@@H](Cc2ccccc2)C(=O)O)c(C)c1C [compound #105, (2s)-2-[[2-(4-Chloro-benzoyl)-benzofuran-3-ylmethyl]-(4-methoxy-2,3,6-trimethyl-benzenesulfonyl)-amino]-3-phenyl-propionic acid]

IC50 [µM]	SMILES
5 to 20	COc1cc(C)c(S(=O)(=O)N(Cc2c(C(F)(F)F)nn(C)c2Oc2ccc(Cl)cc2Cl)[C@@H](Cc2ccccc2)C(=O)O)c(C)c1C [compound #106, (2s)-2-[[5-(2,4-Dichloro-phenoxy)-1-methyl-3-trifluoromethyl-1h-pyrazol-4-ylmethyl]-(4-methoxy-2,3,6-trimethyl-benzenesulfonyl)-amino]-3-phenyl-propionic acid]
< 5	O=C(CN(C(=O)c1ccc(Cl)cc1Cl)[C@@H](Cc1ccccc1)C(=O)O)c1ccc(-c2ccc(Cl)cc2Cl)o1 [compound #107, (2s)-2-((2,4-Dichloro-benzoyl)-{2-[5-(2,4-dichloro-phenyl)-furan-2-yl]-2-oxo-ethyl}-amino)-3-phenyl-propionic acid]
5 to 20	C=CCN(C(=O)c1ccc(Cl)cc1Cl)[C@@H](Cc1ccccc1)C(=O)O [compound #109, (2s)-2-[Allyl-(2,4-dichloro-benzoyl)-amino]-3-phenyl-propionic acid]
5 to 20	CN(C(=O)c1ccc(Cl)cc1Cl)[C@@H](Cc1ccccc1)C(=O)O [compound #110, (2s)-2-[(2,4-Dichloro-benzoyl)-methyl-amino]-3-phenyl-propionic acid]
5 to 20	C#CCN(C(=O)c1ccc(Cl)cc1Cl)[C@@H](Cc1ccccc1)C(=O)O [compound #111, (2s)-2-[(2,4-Dichloro-benzoyl)-prop-2-ynyl-amino]-3-phenyl-propionic acid]
> 20	CCCN(C(=O)c1ccc(Cl)cc1Cl)[C@@H](Cc1ccccc1)C(=O)O [compound #112, (2s)-2-[(2,4-Dichloro-benzoyl)-propyl-amino]-3-phenyl-propionic acid]
< 5	O=C(O)[C@H](Cc1ccccc1)N(CC#Cc1cc2ccccc2o1)C(=O)c1ccc(Cl)cc1Cl [compound #113, (2s)-2-[(3-Benzofuran-2-yl-prop-2-ynyl)-(2,4-dichloro-benzoyl)-amino]-3-phenyl-propionic acid]
< 5	O=C(O)[C@H](Cc1ccccc1)N(C(=O)c1ccc(Cl)cc1Cl)c1ccc(-c2cc3ccccc3o2)cc1 [compound #114, (2s)-2-[(4-Benzofuran-2-yl-phenyl)-(2,4-dichloro-benzoyl)-amino]-3-phenyl-propionic acid]
5 to 20	CC(C)=CCN(C(=O)c1ccc(Cl)cc1Cl)[C@@H](Cc1ccccc1)C(=O)O [compound #115, (2s)-2-[(2,4-Dichloro-benzoyl)-(3-methyl-but-2-enyl)-amino]-3-phenyl-propionic acid]
5 to 20	C=C(Br)CN(C(=O)c1ccc(Cl)cc1Cl)C(Cc1ccccc1)C(=O)O (stereo not drawn) [compound #116, 2-[(2-Bromo-allyl)-(2,4-dichloro-benzoyl)-amino]-3-phenyl-propionic acid]
< 5	O=C(O)[C@H](Cc1ccccc1)N(Cc1ccc(-c2ccccc2C(F)(F)F)o1)C(=O)c1ccc(Cl)cc1Cl [compound #120, (2s)-2-{(2,4-Dichloro-benzoyl)-[5-(2-trifluoromethyl-phenyl)-furan-2-ylmethyl]-amino}-3-phenyl-propionic acid]
< 5	CCOC(=O)c1ccccc1-c1ccc(CN(C(=O)c2ccc(Cl)cc2Cl)[C@@H](Cc2ccccc2)C(=O)O)s1 [compound #121, (2s)-2-(5-{[(1s-1-Carboxy-2-phenyl-ethyl)-(2,4-dichloro-benzoyl)-amino]-methyl}-thiophen-2-yl)-benzoic acid ethyl ester]
< 5	CCOC(=O)c1cccc(-c2ccc(CN(C(=O)c3ccc(Cl)cc3Cl)[C@@H](Cc3ccccc3)C(=O)O)s2)c1 [compound #122, 3-(5-{[(1s-1-Carboxy-2-phenyl-ethyl)-(2,4-dichloro-benzoyl)-amino]-methyl}-thiophen-2-yl)-benzoic acid ethyl ester]
< 5	O=C(O)[C@H](Cc1ccccc1)N(Cc1ccc(-c2cccc(Cl)c2)o1)C(=O)c1ccc(Cl)cc1Cl [compound #123, (2s)-2-[[5-(3-Chloro-phenyl)-furan-2-ylmethyl]-(2,4-dichloro-benzoyl)-amino]-3-phenyl-propionic acid]
< 5	O=C(O)[C@H](Cc1ccccc1)N(Cc1sc(Br)cc1Br)C(=O)c1ccc(Cl)cc1I [compound #124, (2s)-2-[(4-Chloro-2-iodo-benzoyl)-(3,5-dibromo-thiophen-2-ylmethyl)-amino]-3-phenyl-propionic acid]
< 5	O=C(O)c1cccc(-c2ccc(CN(C(=O)c3ccc(Cl)cc3Cl)[C@@H](Cc3ccccc3)C(=O)O)s2)c1 [compound #125, (2s)-3-(5-{[(1-Carboxy-2-phenyl-ethyl)-(2,4-dichloro-benzoyl)-amino]-methyl}-thiophen-2-yl)-benzoic acid]
